Columns and labels:
[1] = HBr and HCl salts-filter compatibility study; assay type: physicochemical; settings: 0.22 μm PTFE filter; 3% PG solution; glass vials, ambient room condition
Description: HBr and HCl salts-filter compatibility study: this study was conducted to assess the compatibility of the HBr and the HCl salts with various membrane filters. […] The glass vials were stored at ambient room condition and visual appearance was periodically inspected.

[2] = Therapeutic silica model: dose levels and lung pharmacokinetic comparison; assay type: in vivo, C57BL/6 mice; settings: Oral Gavage (PO) 30.0 mg/kg; mice
Description: Briefly, acclimated 20-22 g female C57BL/6 mice were administered silica on day 1 by the intratracheal route. On the tenth day, treatment was initiated with either saline or nintedanib. […] Sham and silica control groups received saline either IN or PO. Five animals were enrolled into sham groups, 10 animals enrolled into each PO dose groups, and 13 animals were enrolled into each IN dosing group. […] All animals were euthanized on day 30d. Body weights were collected throughout the study, with lung weights at termination. Flexivent was performed to determine elastance (lung function; Table 59). Left lungs were extracted, stained as assessed for parenchymal collagen (Table 60) and α-smooth muscle actin (αSMA; Table 61), while right lungs were assessed for interleukin-1β (IL-1β; Table 62).
Intranasal (IN) dose levels were selected by comparing lung pharmacokinetics following IN dosing to lung pharmacokinetics determined following 30 mg/kg oral gavage (PO).

Compound: COC(=O)c1ccc2c(c1)NC(=O)/C2=C(\Nc1ccc(N(C)C(=O)CN2CCN(C)CC2)cc1)c1ccccc1 [Nintedanib HBr]
- visual appearance after filtration [1]: no change in appearance through 1 month
- Lung AUC [2]: 7.4 mg·h/kg
- Lung Cmax [2]: 1.1 µg/g
